This is an account of results in patent US20040087561A1, “Treatment of sexual dysfunction” (priority 2000, published 2004).

Series [1] has as its system ovariectomised female Sprague Dawley rats. The experiment in a line: Female rat sexual receptivity (lordosis quotient). It counts as in vivo. Particulars: Example 2; quinelorane 6.25 μg/kg s.c., 90 min; Compound (1) 10 mg/kg i.p., 1 h. The procedure: (§1) Ovariectomised adult female Sprague Dawley rats (180-200 g, from Charles River) were housed in groups of 6 in a reversed lighting system of 12 h light:dark (lights off 7.00-19.00 h). Two weeks after ovariectomy they were used for sexual activity tests. The experiments started at least 5 h into the dark period.
Compound (1) was dissolved in 100% β-cyclodextrin and then diluted with saline to a final solution of 50% 2-hydroxypropyl-β-cyclodextrin. It was administered intraperitoneally (i.p.) at a dose of 10 mg/kg, in a dosing volume of 1 ml/kg. Quinelorane (6.25 μg/kg) was dissolved in water and administered s.c. as positive control. Forty eight hours before testing, ovariectomised female rats (as described above), were primed with 5 μg oestradiol benzoate dissolved in corn oil and injected subcutaneously. […] The females were placed with a series of vigorous male rats and subjected to 10 mounts.
The lordotic response of the animal was recorded and expressed as a percentage of the mounts (i.e. lordosis quotient, LQ), as previously described. Animals showing LQ<20 were considered non-receptive and were included in the study. Each rat was tested prior to administration of the compound and then tested similarly post-injection. The pre-treatment times were 1 h for Compound (1) and vehicle (50% β-cyclodextrin, i.p.) or 90 min for quinelorane.
The above compound was dissolved in PEG200 vehicle and administered orally. Quinelorane dihydrochloride (LY 163,502, 6.25 μg/kg) was dissolved in water and administered subcutaneously (s.c.), as a positive control. Both compounds were administered in a 1 ml/kg volume.
Forty eight hours before tests, the animals were primed with 5 μg oestradiol benzoate (Sigma Chemical. Co. Ltd., UK) dissolved in corn oil and injected subcutaneously. The females were placed with a series of vigorous male rats and subjected to 10 mounts. The lordotic response of the animal was recorded and expressed as a percentage of the mounts (i.e. lordosis quotient, LQ). […] Animals showing higher LQ were not included in the study. Each rat was tested prior to administration of the compound and then tested similarly at 1 h and 90 min post-injection of the above compound or quinelorane respectively.

Series [2] shares this test system. Put plainly: Plasma sexual hormone levels (radioimmunoassay) in ovariectomised female rats. It counts as in vivo, rat. The procedure: Ovariectomised adult female Sprague Dawley rats (180-200 g) were housed in groups of 6 in a reversed lighting system of 12 h light:dark (lights off 7.00-19.00 h). They were used for the experiments at least two weeks after ovariectomy. Forty eight hours before tests, the animals were primed with oestradiol benzoate (5 μg/0.1 ml in corn oil, s.c.). Progesterone (0.5 mg/0.1 ml, in corn oil, s.c.) was administered 4 h before blood collection, as a positive control. Compound (1) (3-10 mg/kg, i.p.) was administered in 50% 2-hydroxypropyl-β-cyclodextrin, 1 h prior to blood collection. Blood was collected from the trunk, after decapitation. It was immediately centrifuged (3500 r.p.m., 4° C., 5 min) and the plasmas frozen until assayed for hormonal content, using commercially available radioimmunoassay kits (^125I-labelled hormones) for oestradiol, progesterone, LH, FSH and prolactin.

The test system is the same in series [3]. Put plainly: Female rat sexual proceptivity (time investigating male vs female stimulus). The format is in vivo. The procedure:
as §1
Tests were carried out in a circular arena of 90 cm diameter, surrounded by a 30 cm high wall. Two small cages with wire-mesh front (15×15 cm) are fixed into the wall such that the front of the cage is <> with the wall and the 2 cages are opposite each other. They contained two stimuli animals: an intact sexually experienced male and a receptive female (ovariectomised, primed with 5 μg oestradiol benzoate dissolved in corn oil and injected subcutaneously 48 hours before the test and with 0.5 mg of progesterone four hours before the test). Sexually naive test and control animals were used. Forty eight hours before the tests, both the test and control animals were primed with 5 μg oestradiol benzoate. For animals used as positive controls, progesterone (0.5 mg/0.1 ml) was dissolved in corn oil and administered subcutaneously (s.c.), 4 h before the test. Test and control animals were introduced one at a time for 10 minute periods into the arena. During the 10 min test, the time that the test or positive control animal spent investigating each stimulus animal was noted. The arena was thoroughly cleaned between animals. The position of the male/female stimuli boxes was randomised between animals, in order to avoid place preference. The difference in the percentage of time spent investigating the male minus the female stimuli was calculated, out of the total time spent investigating stimuli animals.
Compound (1) was dissolved in 100% β-cyclodextrin and then diluted with saline to a final solution of 50% 2-hydroxypropyl-β-cyclodextrin. It was administered intraperitoneally (i.p.) at doses of 3 and 10 mg/kg, in a dosing volume of 1 ml/kg, 1 h before tests. Progesterone (0.5 mg/0.1 ml) was dissolved in corn oil and administered subcutaneously (s.c.), 4 h before test, as a positive control.
Ovariectomised adult female Sprague Dawley rats (180-200 g) were housed in groups of 5 in a reversed lighting system of 12 h light:dark (lights off 5.00-17.00 h). They were used for the experiments at least two weeks after ovariectomy. Forty eight hours before tests, the animals were primed with oestradiol benzoate (5 μg/0.1 ml in corn oil, s.c.). On day 1, progesterone (0.5 mg/0.1 ml, in corn oil, s.c.) was administered to one of the groups 4 h before tests, as a positive control. Compound (1) (15 mg/kg, i.p.) was administered in 50% 2-hydroxypropyl-β-cyclodextrin, 1 h before tests. The test lasted 10 minutes and was carried out as described before. The difference in the percentage of time spent investigating the male minus the female stimuli was calculated, out of the total time spent investigating stimuli animals. Animals were submitted to a test on day 1 and on day 15. From day 2 to 14 the Compound (1) group received a daily injection of the compound (15 mg/kg, i.p.), while both the vehicle and the progesterone groups received an injection of vehicle. On day 15 the test took place again, as described for day 1.
Ovariectomised female rats (Sprague Dawley, obtained from Charles River, UK) were stereotaxically implanted (coordinates 0.89 mm behind Bregma, 1.3 mm lateral and 2.5 mm vertical) with stainless steel cannulae (6 mm long, O.D. 0.75 mm), held in place with dental cement. Animals were housed in groups of three and returned to a reversed lighting system of 12 h light:dark (lights off 5.00-17.00 h). Correct placement of the cannulae was assessed post-mortem. Rats were used for tests two weeks after ovariectomy (one week after cannulation). The experiments started at least 5 h into the dark period. […]

The mark [4] stands for this setting: Compound (1) 3-10 mg/kg 1 h, progesterone 0.5 mg/0.1 ml s.c. 4 h before blood collection, vs vehicle.
The mark [5] stands for this setting: Compound (1) 3-10 mg/kg, 1 h before blood collection.

Regarding `COc1ccc(C2(CNC(=O)[C@](C)(Cc3c[nH]c4ccccc34)NC(=O)Nc3ccc([N+](=O)[O-])cc3)CCCCC2)nc1` [Compound (1), (S) 3-(1H-Indol-3-yl)-N-[1-(5-methoxy-pyridin-2-yl)-cyclohexyl-methyl]-2-methyl-2-[3-(4-nitro-phenyl)-ureido]-propionamide], in series [1], the “lordosis quotient (LQ) compared to LQ before administration” value was “significant (P<0.05) stimulatory effect on the LQ”. In addition, in series [2] (setting [4]), the LH plasma levels result is listed as “no effect” and the progesterone plasma levels result is on record as “no effect”. In series [2] (setting [5]), the FSH plasma levels result is “no effect”, the oestradiol plasma levels entry is recorded as “no effect” and the prolactin plasma levels result is listed as “no effect”. Besides, in series [3] (day 1, Compound (1) 15 mg/kg i.p. 1 h before, progesterone 0.5 mg/0.1 ml s.c. 4 h before, vs vehicle, P<0.01), the “effect on proceptivity, day 1” value was “stimulatory effect on proceptivity”. For the same molecule, the “MED, percentage of time spent investigating the male stimulus (proceptivity)” value in series [3] (i.c.v., 3-30 μg/rat, 10 min before test) was found to be 10 µg. Besides, the “percentage of time spent investigating the male stimulus (proceptivity)” value in series [3] (i.c.v., dose-dependently 3-30 μg/rat, 10 min before test) is “increased the percentage of time spent investigating the male stimulus”. In series [3] (i.p., 3 and 10 mg/kg, 1 h before test, 50% 2-hydroxypropyl-β-cyclodextrin), the “MED, percentage of time spent investigating the male stimulus (proceptivity)” value turned out to be 10 mg/kg. In series [3] (i.p., dose-dependently 3 mg/kg-10 mg/kg, 1 h before test, vs vehicle), the “percentage of time spent investigating the male stimulus (proceptivity)” value was “increased the percentage of time spent investigating the male stimulus”. Besides, in series [3] (repeated administration 15 mg/kg i.p. daily for 15 days), the “body weight or general behaviour” value is “no changes in body weight or general behaviour”.
